The data set can be described thus: Storage stability of amrubicin hydrochloride compositions: rates of by-product generation of degradation products. In kind it is physicochemical. The protocol: Various compositions of amrubicin hydrochloride composed of about 91 to about 98% by weight of amrubicin hydrochloride and about 2 to about 9% by weight of water were prepared by exposing dried amrubicin hydrochloride to air whose relative humidity was adjusted (0 to 95%).
The thus-prepared amrubicin hydrochloride compositions having water contents of about 2 to about 9% by weight were stored at 30° C. and investigated rates of by-product generation of the degradation products, i.e., the desaccharification and deamination products.
The relative humidity was adjusted by reference to “Kobunshi Jikken-gaku Koza (Polymer Experiment Course) 5, Kobunshi no Bussei (Physical Properties of Polymers), 100-107 pages (Kyoritsu Shuppan Kabushiki Kaisha)”.

[1] abbreviates: according to the decrease in water content.
Where [2] appears, read: according to the increase in water content.

On to `CC(=O)[C@]1(N)Cc2c(O)c3c(c(O)c2[C@@H](O[C@H]2C[C@H](O)[C@H](O)CO2)C1)C(=O)c1ccccc1C3=O.Cl` [amrubicin hydrochloride, (7S,9S)-9-Acetyl-9-amino-7-[(2-deoxy-β-D-erythro-pentapyranosyl)oxy]-7,8,9,10-tetrahydro-6,11-dihydroxy-5,12-nephthacenedione hydrochloride], for which the “by-product generation rate of the deamination product” value is given as “decreased” under setting [1] and “increased” under setting [2]. Further, the “by-product generation rate of the desaccharification product” value is, setting by setting: under setting [1], “increased”; under setting [2], “decreased”. Further, the “by-product generation of both desaccharification and deamination products” value is reported as “can be suppressed” (stored at 30° C. under an atmosphere at 5 to 90% relative humidity (FIG. 1)) and “can be suppressed” (stored at 30° C., water content in composition controlled at 3 to 8% by weight (FIG. 2)).

The values above are taken from patent publication US8030283B2, “Stabilization of amrubicin hydrochloride” (Dainippon Sumitomo Pharma Co., Ltd., priority 2001, dated 2011).
